Values joined by “and” are separate entries in the source; they are usually repeats but may differ in a detail not shown here. Identical values can stand only once. Like-named read-outs stand apart in the source and are kept apart here.
What was measured:
Assay type in all cases: cell-based
[1] = system: Colletotrichum destructivum; conditions: 25° C., 1 day or 2 days
[2] = system: Pyricularia oryzae; conditions: 25° C., 1 day or 2 days
[3] = system: Botrytis cinerea; conditions: 25° C., 1 day or 2 days
[4] = system: Colletotrichum orbiculare; conditions: 25° C., 1 day or 2 days
[5] = system: Fusarium oxysporum

With “ERTRK (listed as Solanum lycopersicum) [TsORF18-2-5aa-9]” the “Plate antimicrobial activity test Colletotrichum destructivum (level)” value ([1]; peptide 1 μM) was 0, the “Plate antimicrobial activity test Colletotrichum destructivum (level)” value ([1]; peptide 10 μM) was 0 and the “Plate antimicrobial activity test Colletotrichum destructivum (level)” value ([1]; peptide 100 μM) was 0. The “Plate antimicrobial activity test Pyricularia oryzae (level)” value ([2]; peptide 1 μM) was 0, the “Plate antimicrobial activity test Pyricularia oryzae (level)” value ([2]; peptide 10 μM) was 0 and the “Plate antimicrobial activity test Pyricularia oryzae (level)” value ([2]; peptide 100 μM) was 0. The “Plate antimicrobial activity test Botrytis cinerea (level)” value ([3]; peptide 1 μM) was 0, the “Plate antimicrobial activity test Botrytis cinerea (level)” value ([3]; peptide 10 μM) was 0 and the “Plate antimicrobial activity test Botrytis cinerea (level)” value ([3]; peptide 100 μM) was 0. For the same substance, the “Plate antimicrobial activity test Collectotrichum orbiculare (level)” value ([4]; peptide 1 μM) was 0, the “Plate antimicrobial activity test Collectotrichum orbiculare (level)” value ([4]; peptide 10 μM) was 0 and the “Plate antimicrobial activity test Collectotrichum orbiculare (level)” value ([4]; peptide 100 μM) was 0. The “Plate antimicrobial activity test Fusarium oxysporum (level)” value [5] was 0.
In the case of ILLSLEIFERKFSRSVWYYGFP [TsORF18-1], the “Plate antimicrobial activity test Colletotrichum destructivum (level)” value ([1]; peptide 1 μM) is reported as 0, the “Plate antimicrobial activity test Colletotrichum destructivum (level)” value ([1]; peptide 10 μM) is reported as 0 and the “Plate antimicrobial activity test Colletotrichum destructivum (level)” value ([1]; peptide 100 μM) is reported as 0. For the same substance, the “Plate antimicrobial activity test Pyricularia oryzae (level)” value ([2]; peptide 1 μM) was 0, the “Plate antimicrobial activity test Pyricularia oryzae (level)” value ([2]; peptide 10 μM) was 0 and the “Plate antimicrobial activity test Pyricularia oryzae (level)” value ([2]; peptide 100 μM) was 0. The “Plate antimicrobial activity test Botrytis cinerea (level)” value ([3]; peptide 1 μM) was 0, the “Plate antimicrobial activity test Botrytis cinerea (level)” value ([3]; peptide 10 μM) was 0 and the “Plate antimicrobial activity test Botrytis cinerea (level)” value ([3]; peptide 100 μM) was 0. The “Plate antimicrobial activity test Collectotrichum orbiculare (level)” value ([4]; peptide 1 μM) was 0, the “Plate antimicrobial activity test Collectotrichum orbiculare (level)” value ([4]; peptide 10 μM) was 0 and the “Plate antimicrobial activity test Collectotrichum orbiculare (level)” value ([4]; peptide 100 μM) was 0. For the same substance, the “Plate antimicrobial activity test Fusarium oxysporum (level)” value [5] was 0.
With “AFSERTRK (listed as Solanum lycopersicum) [TsORF18-2-8aa-6]” the “Plate antimicrobial activity test Colletotrichum destructivum (level)” value ([1]; peptide 1 μM) was 0, the “Plate antimicrobial activity test Colletotrichum destructivum (level)” value ([1]; peptide 10 μM) was 0 and the “Plate antimicrobial activity test Colletotrichum destructivum (level)” value ([1]; peptide 100 μM) was 0. For the same substance, the “Plate antimicrobial activity test Pyricularia oryzae (level)” value ([2]; peptide 1 μM) was 0, the “Plate antimicrobial activity test Pyricularia oryzae (level)” value ([2]; peptide 10 μM) was 0 and the “Plate antimicrobial activity test Pyricularia oryzae (level)” value ([2]; peptide 100 μM) was 0. The “Plate antimicrobial activity test Botrytis cinerea (level)” value ([3]; peptide 1 μM) was 0, the “Plate antimicrobial activity test Botrytis cinerea (level)” value ([3]; peptide 10 μM) was 0 and the “Plate antimicrobial activity test Botrytis cinerea (level)” value ([3]; peptide 100 μM) was 0. The “Plate antimicrobial activity test Collectotrichum orbiculare (level)” value ([4]; peptide 1 μM) was 0, the “Plate antimicrobial activity test Collectotrichum orbiculare (level)” value ([4]; peptide 10 μM) was 0 and the “Plate antimicrobial activity test Collectotrichum orbiculare (level)” value ([4]; peptide 100 μM) was 0. For the same substance, the “Plate antimicrobial activity test Fusarium oxysporum (level)” value [5] was 0.
In the case of “IWKGK (listed as Solanum lycopersicum) [TsORF18-2-5aa-17]”, the “Plate antimicrobial activity test Colletotrichum destructivum (level)” value ([1]; peptide 1 μM) is reported as 0, the “Plate antimicrobial activity test Colletotrichum destructivum (level)” value ([1]; peptide 10 μM) is reported as 0 and the “Plate antimicrobial activity test Colletotrichum destructivum (level)” value ([1]; peptide 100 μM) is reported as 0. The “Plate antimicrobial activity test Pyricularia oryzae (level)” value ([2]; peptide 1 μM) was 0, the “Plate antimicrobial activity test Pyricularia oryzae (level)” value ([2]; peptide 10 μM) was 0 and the “Plate antimicrobial activity test Pyricularia oryzae (level)” value ([2]; peptide 100 μM) was 0. The “Plate antimicrobial activity test Botrytis cinerea (level)” value ([3]; peptide 1 μM) was 0, the “Plate antimicrobial activity test Botrytis cinerea (level)” value ([3]; peptide 10 μM) was 0 and the “Plate antimicrobial activity test Botrytis cinerea (level)” value ([3]; peptide 100 μM) was 0. For the same substance, the “Plate antimicrobial activity test Collectotrichum orbiculare (level)” value ([4]; peptide 1 μM) was 0, the “Plate antimicrobial activity test Collectotrichum orbiculare (level)” value ([4]; peptide 10 μM) was 0 and the “Plate antimicrobial activity test Collectotrichum orbiculare (level)” value ([4]; peptide 100 μM) was 0. For the same substance, the “Plate antimicrobial activity test Fusarium oxysporum (level)” value [5] was 0.
In the case of “SERTRKFW (listed as Solanum lycopersicum) [TsORF18-2-8aa-8]”, the “Plate antimicrobial activity test Colletotrichum destructivum (level)” value ([1]; peptide 1 μM) is reported as 0, the “Plate antimicrobial activity test Colletotrichum destructivum (level)” value ([1]; peptide 10 μM) is reported as 0 and the “Plate antimicrobial activity test Colletotrichum destructivum (level)” value ([1]; peptide 100 μM) is reported as 0. The “Plate antimicrobial activity test Pyricularia oryzae (level)” value ([2]; peptide 1 μM) was 0, the “Plate antimicrobial activity test Pyricularia oryzae (level)” value ([2]; peptide 10 μM) was 0 and the “Plate antimicrobial activity test Pyricularia oryzae (level)” value ([2]; peptide 100 μM) was 0. For the same substance, the “Plate antimicrobial activity test Botrytis cinerea (level)” value ([3]; peptide 1 μM) was 0, the “Plate antimicrobial activity test Botrytis cinerea (level)” value ([3]; peptide 10 μM) was 0 and the “Plate antimicrobial activity test Botrytis cinerea (level)” value ([3]; peptide 100 μM) was 0. For the same substance, the “Plate antimicrobial activity test Collectotrichum orbiculare (level)” value ([4]; peptide 1 μM) was 0, the “Plate antimicrobial activity test Collectotrichum orbiculare (level)” value ([4]; peptide 10 μM) was 0 and the “Plate antimicrobial activity test Collectotrichum orbiculare (level)” value ([4]; peptide 100 μM) was 0. The “Plate antimicrobial activity test Fusarium oxysporum (level)” value [5] was 0.
With “RIWKGKTS (listed as Solanum lycopersicum) [TsORF18-2-8aa-16]” the “Plate antimicrobial activity test Colletotrichum destructivum (level)” value ([1]; peptide 1 μM) was 0, the “Plate antimicrobial activity test Colletotrichum destructivum (level)” value ([1]; peptide 10 μM) was 0 and the “Plate antimicrobial activity test Colletotrichum destructivum (level)” value ([1]; peptide 100 μM) was 0. The “Plate antimicrobial activity test Pyricularia oryzae (level)” value ([2]; peptide 1 μM) was 0, the “Plate antimicrobial activity test Pyricularia oryzae (level)” value ([2]; peptide 10 μM) was 0 and the “Plate antimicrobial activity test Pyricularia oryzae (level)” value ([2]; peptide 100 μM) was 0. The “Plate antimicrobial activity test Botrytis cinerea (level)” value ([3]; peptide 1 μM) was 0, the “Plate antimicrobial activity test Botrytis cinerea (level)” value ([3]; peptide 10 μM) was 0 and the “Plate antimicrobial activity test Botrytis cinerea (level)” value ([3]; peptide 100 μM) was 2. The “Plate antimicrobial activity test Collectotrichum orbiculare (level)” value ([4]; peptide 1 μM) was 0, the “Plate antimicrobial activity test Collectotrichum orbiculare (level)” value ([4]; peptide 10 μM) was 0 and the “Plate antimicrobial activity test Collectotrichum orbiculare (level)” value ([4]; peptide 100 μM) was 1. The “Plate antimicrobial activity test Fusarium oxysporum (level)” value [5] was 1 and 0.
For “YGFPAFSE (listed as Solanum lycopersicum) [TsORF18-2-8aa-2]”, the “Plate antimicrobial activity test Colletotrichum destructivum (level)” value ([1]; peptide 1 μM) was 0, the “Plate antimicrobial activity test Colletotrichum destructivum (level)” value ([1]; peptide 10 μM) was 0 and the “Plate antimicrobial activity test Colletotrichum destructivum (level)” value ([1]; peptide 100 μM) was 0. For the same substance, the “Plate antimicrobial activity test Pyricularia oryzae (level)” value ([2]; peptide 1 μM) was 0, the “Plate antimicrobial activity test Pyricularia oryzae (level)” value ([2]; peptide 10 μM) was 0 and the “Plate antimicrobial activity test Pyricularia oryzae (level)” value ([2]; peptide 100 μM) was 0. The “Plate antimicrobial activity test Botrytis cinerea (level)” value ([3]; peptide 1 μM) was 0, the “Plate antimicrobial activity test Botrytis cinerea (level)” value ([3]; peptide 10 μM) was 0 and the “Plate antimicrobial activity test Botrytis cinerea (level)” value ([3]; peptide 100 μM) was 0. The “Plate antimicrobial activity test Collectotrichum orbiculare (level)” value ([4]; peptide 1 μM) was 0, the “Plate antimicrobial activity test Collectotrichum orbiculare (level)” value ([4]; peptide 10 μM) was 0 and the “Plate antimicrobial activity test Collectotrichum orbiculare (level)” value ([4]; peptide 100 μM) was 0. The “Plate antimicrobial activity test Fusarium oxysporum (level)” value [5] was 0.
In the case of “FWRIW (listed as Solanum lycopersicum) [TsORF18-2-5aa-14]”, the “Plate antimicrobial activity test Colletotrichum destructivum (level)” value ([1]; peptide 1 μM) is reported as 0, the “Plate antimicrobial activity test Colletotrichum destructivum (level)” value ([1]; peptide 10 μM) is reported as 0 and the “Plate antimicrobial activity test Colletotrichum destructivum (level)” value ([1]; peptide 100 μM) is reported as 0. For the same substance, the “Plate antimicrobial activity test Pyricularia oryzae (level)” value ([2]; peptide 1 μM) was 0, the “Plate antimicrobial activity test Pyricularia oryzae (level)” value ([2]; peptide 10 μM) was 0 and the “Plate antimicrobial activity test Pyricularia oryzae (level)” value ([2]; peptide 100 μM) was 0. The “Plate antimicrobial activity test Botrytis cinerea (level)” value ([3]; peptide 1 μM) was 0, the “Plate antimicrobial activity test Botrytis cinerea (level)” value ([3]; peptide 10 μM) was 0 and the “Plate antimicrobial activity test Botrytis cinerea (level)” value ([3]; peptide 100 μM) was 0. The “Plate antimicrobial activity test Collectotrichum orbiculare (level)” value ([4]; peptide 1 μM) was 0, the “Plate antimicrobial activity test Collectotrichum orbiculare (level)” value ([4]; peptide 10 μM) was 0 and the “Plate antimicrobial activity test Collectotrichum orbiculare (level)” value ([4]; peptide 100 μM) was 0. For the same substance, the “Plate antimicrobial activity test Fusarium oxysporum (level)” value [5] was 0.
In the case of “FSERT (listed as Solanum lycopersicum) [TsORF18-2-5aa-7]”, the “Plate antimicrobial activity test Colletotrichum destructivum (level)” value ([1]; peptide 1 μM) is reported as 0, the “Plate antimicrobial activity test Colletotrichum destructivum (level)” value ([1]; peptide 10 μM) is reported as 0 and the “Plate antimicrobial activity test Colletotrichum destructivum (level)” value ([1]; peptide 100 μM) is reported as 0. The “Plate antimicrobial activity test Pyricularia oryzae (level)” value ([2]; peptide 1 μM) was 0, the “Plate antimicrobial activity test Pyricularia oryzae (level)” value ([2]; peptide 10 μM) was 0 and the “Plate antimicrobial activity test Pyricularia oryzae (level)” value ([2]; peptide 100 μM) was 0. For the same substance, the “Plate antimicrobial activity test Botrytis cinerea (level)” value ([3]; peptide 1 μM) was 0, the “Plate antimicrobial activity test Botrytis cinerea (level)” value ([3]; peptide 10 μM) was 0 and the “Plate antimicrobial activity test Botrytis cinerea (level)” value ([3]; peptide 100 μM) was 0. For the same substance, the “Plate antimicrobial activity test Collectotrichum orbiculare (level)” value ([4]; peptide 1 μM) was 0, the “Plate antimicrobial activity test Collectotrichum orbiculare (level)” value ([4]; peptide 10 μM) was 0 and the “Plate antimicrobial activity test Collectotrichum orbiculare (level)” value ([4]; peptide 100 μM) was 0. For the same substance, the “Plate antimicrobial activity test Fusarium oxysporum (level)” value [5] was 0.
For “GFPAF (listed as Solanum lycopersicum) [TsORF18-2-5aa-3]”, the “Plate antimicrobial activity test Colletotrichum destructivum (level)” value ([1]; peptide 1 μM) was 0, the “Plate antimicrobial activity test Colletotrichum destructivum (level)” value ([1]; peptide 10 μM) was 0 and the “Plate antimicrobial activity test Colletotrichum destructivum (level)” value ([1]; peptide 100 μM) was 0. For the same substance, the “Plate antimicrobial activity test Pyricularia oryzae (level)” value ([2]; peptide 1 μM) was 0, the “Plate antimicrobial activity test Pyricularia oryzae (level)” value ([2]; peptide 10 μM) was 0 and the “Plate antimicrobial activity test Pyricularia oryzae (level)” value ([2]; peptide 100 μM) was 0. For the same substance, the “Plate antimicrobial activity test Botrytis cinerea (level)” value ([3]; peptide 1 μM) was 0, the “Plate antimicrobial activity test Botrytis cinerea (level)” value ([3]; peptide 10 μM) was 0 and the “Plate antimicrobial activity test Botrytis cinerea (level)” value ([3]; peptide 100 μM) was 0. For the same substance, the “Plate antimicrobial activity test Collectotrichum orbiculare (level)” value ([4]; peptide 1 μM) was 0, the “Plate antimicrobial activity test Collectotrichum orbiculare (level)” value ([4]; peptide 10 μM) was 0 and the “Plate antimicrobial activity test Collectotrichum orbiculare (level)” value ([4]; peptide 100 μM) was 0. For the same substance, the “Plate antimicrobial activity test Fusarium oxysporum (level)” value [5] was 0.
For “PAFSE (listed as Solanum lycopersicum) [TsORF18-2-5aa-5]”, the “Plate antimicrobial activity test Colletotrichum destructivum (level)” value ([1]; peptide 1 μM) was 0, the “Plate antimicrobial activity test Colletotrichum destructivum (level)” value ([1]; peptide 10 μM) was 0 and the “Plate antimicrobial activity test Colletotrichum destructivum (level)” value ([1]; peptide 100 μM) was 0. For the same substance, the “Plate antimicrobial activity test Pyricularia oryzae (level)” value ([2]; peptide 1 μM) was 0, the “Plate antimicrobial activity test Pyricularia oryzae (level)” value ([2]; peptide 10 μM) was 0 and the “Plate antimicrobial activity test Pyricularia oryzae (level)” value ([2]; peptide 100 μM) was 0. The “Plate antimicrobial activity test Botrytis cinerea (level)” value ([3]; peptide 1 μM) was 0, the “Plate antimicrobial activity test Botrytis cinerea (level)” value ([3]; peptide 10 μM) was 0 and the “Plate antimicrobial activity test Botrytis cinerea (level)” value ([3]; peptide 100 μM) was 0. The “Plate antimicrobial activity test Collectotrichum orbiculare (level)” value ([4]; peptide 1 μM) was 0, the “Plate antimicrobial activity test Collectotrichum orbiculare (level)” value ([4]; peptide 10 μM) was 0 and the “Plate antimicrobial activity test Collectotrichum orbiculare (level)” value ([4]; peptide 100 μM) was 0. For the same substance, the “Plate antimicrobial activity test Fusarium oxysporum (level)” value [5] was 0.

— patent US11952584B2, “Functional peptides having antimicrobial activity against phytopathogenic microorganisms” (TOYOTA JIDOSHA KABUSHIKI KAISHA, priority 2019, dated 2024)
